Reference: patent US7970552B1, “Diagnostic system for selecting nutrition and pharmacological products for animals” (priority 2008, dated 2011)

System: cartilage cells of individual affected unhealthy dogs
Assay: Cartilage cells of affected dogs cultured in vitro with 0 or 60 mg/l curcumin or andrographolide for 6 hours, microarray fold change in gene expression
Type: cell-based, German Shepherd dogs
Conditions: for Fold change of gene expression, mean: 60 mg/l vs 0, 6 hours; for Net effect of the NBC on fold change, mean: net of fold change in unhealthy dogs
Description: Total RNA of cells was extracted using phenol/guanidine HCI reagents (Trizol, Invitrogen). RNA quality integrity was analysed using the Agilent 2100 Bioanalyser (Agilent Technologies) of the sample. The samples determined to have no, or minimal, loss of integrity and thus were considered suitable for use in experiments. mRNA was amplified for each sample, starting with 500 ng total RNA using a commercially available kit (Ambion T7 MEGAscript high yield transcription kit, Ambion). The mRNA was quantified using a spectrophotometer. mRNA was directly reverse transcribed to cDNA from […] using the Superscript indirect cDNA labeling Core kit (Invitrogen, Milan, Italy).
Two micrograms of cDNA were labelled with Cyanine-3dCTP (Cy3) or Cyanine-5dCTP (Cy5) fluorochromes using the cDNA labeling purification module kit (Invitrogen, Milan, Italy). Samples were hybridised to a canine specific, whole genome 44k spot 60mer oligonucleotide (Agilent Technologies). The labelled cDNA was appropriately coupled and used for competitive hybridization on the same microarray at 42° C. for 16 h. Fluorescence incorporation was determined using a spectrophotometer. The relative intensity of labelled cDNA in was acquired with ScanArray LITE scanner (PerkinElmer Life Sciences, Inc).
Expression data were then exported into Excel 2007 and processed with SAM software; comparison between groups was achieved using paired student's t tests. […] Correction for multiple hypothesis testing was performed using the false discovery rate (FDR).
Searching within the nutrient data set for biologically active nutrients with anti-arthritic and anti-inflammatory properties identified curcumin and androgropholide as the appropriated compositions. The cartilage cells of individual affected unhealthy dogs were cultured in vitro with 0, or 60 mg/l of curcumin or androgropholide for 6 hours. At the end of the incubation, these cartilage cells from individual affected dogs were washed and used for RNA extraction. For the microarray analysis, co-hybridisation of the RNA from 0 and 60 mg/l was conducted, using the material and the methods described previously.
The table below reports the mean fold change in gene expression of two biologically active nutrients, namely curcumin and andrographolide. […] The dose to be added to the food or the nutrient composition is computed using literature data, which indicates a dose of 4 mg/kg body weight for either curcumin or andrographolide.

[1] = cartilage cells of affected dogs, 60 mg/l, 6 hours

Structure (SMILES): C=C1CC[C@@H]2[C@](C)(CO)[C@H](O)CC[C@@]2(C)[C@@H]1C/C=C1/C(=O)OC[C@H]1O [Androgrpholide]
- Fold change of gene expression, mean (gene ACTB): −1.0
- Net effect of the NBC on fold change, mean (gene ACTB, 60 mg/l, 6 hours): 2.8
- Fold change of gene expression, mean (gene ACTR3): 1.0
- Net effect of the NBC on fold change, mean (gene ACTR3, 60 mg/l, 6 hours): 1.3
- Fold change of gene expression, mean (gene ADK): 0.0
- Net effect of the NBC on fold change, mean (gene ADK, 60 mg/l, 6 hours): 3.6
- Fold change of gene expression, mean (gene ANKRD10): 0.0
- Net effect of the NBC on fold change, mean (gene ANKRD10, 60 mg/l, 6 hours): 5.2
- Fold change of gene expression, mean (gene CAV1): 0.0
- Net effect of the NBC on fold change, mean (gene CAV1, 60 mg/l, 6 hours): 4.8
- Fold change of gene expression, mean (gene CDH11): −1.0
- Net effect of the NBC on fold change, mean (gene CDH11, 60 mg/l, 6 hours): 5.9
- Fold change of gene expression, mean (gene COL3A1): −2.0
- Net effect of the NBC on fold change, mean (gene COL3A1, 60 mg/l, 6 hours): 7.5
- Fold change of gene expression, mean (gene COX1): 0.0
- Net effect of the NBC on fold change, mean (gene COX1, 60 mg/l, 6 hours): 0.8
- Fold change of gene expression, mean (gene COX2): 0.0
- Net effect of the NBC on fold change, mean (gene COX2, 60 mg/l, 6 hours): 23.0
- Fold change of gene expression, mean (gene IGFBP7): −2.0
- Net effect of the NBC on fold change, mean (gene IGFBP7, 60 mg/l, 6 hours): 1.7
- Fold change of gene expression, mean (gene IL2): −6.0
- Net effect of the NBC on fold change, mean (gene IL2, 60 mg/l, 6 hours): −3.0
- Fold change of gene expression, mean (gene MMP2): −5.0
- Net effect of the NBC on fold change, mean (gene MMP2, 60 mg/l, 6 hours): 5.0
- Fold change of gene expression, mean (gene NOS2): −6.0
- Net effect of the NBC on fold change, mean (gene NOS2, 60 mg/l, 6 hours): −5.8
- Fold change of gene expression, mean (gene PTGS-2): −5.0
- Net effect of the NBC on fold change, mean (gene PTGS-2, 60 mg/l, 6 hours): −3.8
- Fold change of gene expression, mean (gene SPARC): 0.0
- Net effect of the NBC on fold change, mean (gene SPARC, 60 mg/l, 6 hours): 6.3
- Fold change of gene expression, mean (gene STMN1): 0.0
- Net effect of the NBC on fold change, mean (gene STMN1, 60 mg/l, 6 hours): 6.2
- Fold change of gene expression, mean (gene TIMP1): 0.0
- Net effect of the NBC on fold change, mean (gene TIMP1, 60 mg/l, 6 hours): 6.2
- Fold change of gene expression, mean (gene TIMP2): 0.0
- Net effect of the NBC on fold change, mean (gene TIMP2, 60 mg/l, 6 hours): 2.0
- Fold change of gene expression, mean (gene TNF-a): −8.0
- Net effect of the NBC on fold change, mean (gene TNF-a, 60 mg/l, 6 hours): 2.0
- Fold change of gene expression, mean (gene TUBA): 0.0
- Net effect of the NBC on fold change, mean (gene TUBA, 60 mg/l, 6 hours): 4.7
- Fold change of gene expression, mean (gene TUBB): 0.0
- Net effect of the NBC on fold change, mean (gene TUBB, 60 mg/l, 6 hours): 4.8

Structure (SMILES): C=C1CC[C@@H]2[C@](C)(CO)[C@H](O)CC[C@@]2(C)[C@@H]1C/C=C1/C(=O)OC[C@H]1O [andrographolide]
- Anti-inflammatory activity [1]: possesses an anti-inflammatory activity
- Match with the regulation of the genes up- or down-regulated in affected unhealthy cartilage cells [1]: does not exactly match the regulation of all the genes

Structure (SMILES): COc1cc(/C=C/C(=O)CC(=O)/C=C/c2ccc(O)c(OC)c2)ccc1O [curcumin]
- Match with the regulation of the genes up- or down-regulated in affected unhealthy cartilage cells [1]: completely satisfies these requirements
